Read-outs that look alike come from different tables or passages of the source.
Tests used:
[1] = mouse, in vivo
Experimental: Reference source not found.6.
These findings were reversible on cessation of drug administration.
The MTD was 75 mg/kg/day (225 mg/m^2/day) in the mouse and the HNSTD was […] (350 mg/m^2/day) in the minipig.

[2] = SRA737 monotherapy clinical study (SRA737-01), pharmacokinetics; type: in vivo, human
Experimental: A Phase 1 clinical trial was conducted in ‘all comers,’ i.e. no genetic selection was performed, to establish safety, tolerability and pharmacokinetics (“Dose Escalation Phase”). Cohorts consisting initially of a single subject received escalating doses of SRA737, starting in Cohort 1 with 20 mg/day administered orally on a continuous daily dosing schedule in 28 day cycles. the dose was escalated until the maximum tolerated dose (MTD) was identified.
Cmin was calculated at 1000 mg QD (411 ng/mL) and exceeded that determined in preclinical models to be effective. Doses ≥300 mg QD also exceeded the preclinical models to be effective.
A Dose Escalation phase employed an accelerated titration design starting at 20 mg SRA737, administered QD orally in 28-day cycles. Incremental dose escalations in single-subject cohorts were followed by a rolling-6 design once SRA737-related ≥Grade 2 toxicity was observed during Cycle 1.
The plasma pharmacokinetics of SRA737 were reproducible and generally dose concordant. […] All doses ≥300 mg QD also exceeded this threshold level.

Chk1 = biological target: T1, Chk1 (Homo sapiens, UniProt O14757); conditions: previously found; Walton et al. Oncotarget 2016; cited from earlier work
T1 sequence (O14757 1-476): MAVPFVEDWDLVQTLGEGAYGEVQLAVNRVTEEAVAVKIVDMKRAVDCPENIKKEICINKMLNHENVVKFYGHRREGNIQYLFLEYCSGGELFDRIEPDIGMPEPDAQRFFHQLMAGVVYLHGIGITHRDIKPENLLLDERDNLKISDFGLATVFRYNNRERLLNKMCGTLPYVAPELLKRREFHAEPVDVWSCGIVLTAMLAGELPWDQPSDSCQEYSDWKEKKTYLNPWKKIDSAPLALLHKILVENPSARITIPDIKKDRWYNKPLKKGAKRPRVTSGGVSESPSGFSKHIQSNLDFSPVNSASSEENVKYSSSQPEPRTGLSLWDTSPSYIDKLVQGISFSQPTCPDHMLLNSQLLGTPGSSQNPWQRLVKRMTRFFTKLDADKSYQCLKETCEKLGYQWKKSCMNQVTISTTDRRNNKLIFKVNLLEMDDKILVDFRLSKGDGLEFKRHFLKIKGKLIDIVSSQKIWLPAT

[3] = SRA737 plasma and tumor concentrations in HT29 xenograft model; type: in vivo, mice; conditions: mouse, plasma, oral, read-out: plasma concentration with anti-tumor activity in preclinical efficacy models
Experimental: The effect of SRA737 on Gemcitabine induced CHK1 S296 autophosphorylation was assessed as described in Walton et al. (Oncotarget. 2016 January 19; 7(3): 2329-2342), herein incorporated by reference for all it teaches. Briefly, mice bearing HT29 tumor xenografts were administered (i) vehicle control or (ii) gemcitabine (100 mg/kg in saline, IV) or (iii) a combination of SRA737 (12.5, 25, 50 or 100 mg/kg in DTPW, oral) and gemcitabine (100 mg/kg) with SRA737 administered 24 hours following gemcitabine administration (n=3 per time point per treatment). […] Exposure in the tumor was greater than 10-fold higher than in plasma. The circulating plasma concentration at this 24-hour timepoint corresponded to a free drug concentration of approximately 6 nM (2 ng/mL) based on plasma protein binding in mice of 94%.

cancer xenograft models = assay: In vivo efficacy studies in xenograft, PDX and syngeneic models; parameters: species or system mouse
Experimental: A program of in vivo efficacy studies was performed to assess the activity of SRA737 in combination with genotoxic chemotherapy and targeted agents, and as monotherapy.
One of these models also carried a MYCN amplification. A fourth HGSOC PDX model with partial resistance to PARPi was also sensitive to high dose SRA737 monotherapy.

[4] = system: cryopreserved hepatocytes; assay: Rank order of hepatocyte stability across species; type: in vitro ADME, human, mouse, rat, dog, minipig and monkey; conditions: 10 μM, up to 4 hours
Experimental: The formation of SRA737-related metabolites was determined in cryopreserved hepatocytes from human, mouse, rat, dog, minipig and monkey samples after incubation with SRA737 at a nominal concentration of 10 μM for up to 4 hours. […] In the human hepatocyte preparation, approximately 67% of the parent remained after 4 hours of incubation compared to 75% and 7% in the rat and minipig preparations, respectively. Eight human SRA737 metabolites were observed. All SRA737 metabolites formed by human hepatocytes were also formed by monkey hepatocytes. Six metabolites were present at equal or greater abundance in the monkey.

plasma protein [5] = assay: Plasma protein binding, rapid equilibrium dialysis, dog plasma; type: in vitro ADME; conditions: 10 μM
Experimental: (§1) The PK of SRA737 have been determined in the mouse, rat, dog and monkey following oral and IV administration (Table 3). […] An acceptable terminal elimination t1/2 was also observed in each species. […] The plasma protein binding of SRA737 at 1 and 10 μM was examined in mouse, minipig, monkey and human plasma using ultracentrifugation and in dog plasma (10 μM) using rapid equilibrium dialysis.

plasma protein [6] = assay: Plasma protein binding, ultracentrifugation, monkey plasma; type: in vitro ADME
Experimental: as §1

N#Cc1cnc(Nc2cc(NCC3CNCCO3)c(C(F)(F)F)cn2)cn1 (stereo not drawn) [SRA737, 5-[[4-[[morpholin-2-yl]methylamino]-5-(trifluoromethyl)-2-pyridyl]amino]pyrazine-2-carbonitrile]
changes in reproductive organs [1]: changes in reproductive organs, particularly the testes, were also observed
dose-dependent toxicological findings [1]: bone marrow toxicity
CL/F ([2]; human, in vivo, 160 mg): 70.0 L/h
Vd/F ([2]; human, in vivo, 160 mg): 1390 L
CL/F ([2]; human, in vivo, 300 mg): 81.9 L/h
Vd/F ([2]; human, in vivo, 300 mg): 1020 L
t1/2 ([2]; human, in vivo, 300 mg): 8.6 h
CL/F ([2]; human, in vivo, 600 mg): 56.9 L/h
Vd/F ([2]; human, in vivo, 600 mg): 1090 L
AUC(0-t) ([2]; human, in vivo, 800 mg): 18500 ng·h/mL
CL/F ([2]; human, in vivo, 800 mg): 39.1 L/h
Cmax ([2]; human, in vivo, 800 mg): 1880 ng/mL
Vd/F ([2]; human, in vivo, 800 mg): 596 L
t1/2 ([2]; human, in vivo, 800 mg): 10.5 h
AUC0-24 h ([2]; human, in vivo, 1000 mg): 20270 ng·h/mL
CL/F ([2]; human, in vivo, 1000 mg): 44.9 L/h
Cmax ([2]; human, in vivo, 1000 mg): 2098 ng/mL
Vd/F ([2]; human, in vivo, 1000 mg): 704 L
CL/F ([2]; human, in vivo, 1300 mg): 38.6 L/h
Vd/F ([2]; human, in vivo, 1300 mg): 625 L
doses at which Cmin exceeded that effective in preclinical models ([2]; monotherapy): ≥ 300 mg QD
Cmin ([2]; monotherapy PK dose 160 mg (n = 1)): 31.7 ng/mL
Cmin ([2]; monotherapy PK dose 300 mg (n = 1)): 41.2 ng/mL
Cmin ([2]; monotherapy PK dose 600 mg (n = 4)): 129 ng/mL
Cmin ([2]; monotherapy PK dose 800 mg (n = 38)): 234 ng/mL
Cmin ([2]; monotherapy PK dose 1000 mg (n = 44-45)): 289 ng/mL
Cmin ([2]; monotherapy PK dose 1300 mg (n = 3)): 466 ng/mL
inhibitor of Chk1 (Chk1): potent and selective inhibitor of Chk1 with limited off-target activity against other kinases
concentration at 24 h ([3]; equivalent of 100 nM): ~37.9 ng/mL
concentration at 24 h ([3]; mice, sustained for 24 hours, PK/PD benchmark): 100 nM
synergy with gemcitabine and carboplatin (cancer xenograft models; Calu6 model, data not shown): Synergy
antitumor activity as a single agent (cancer xenograft models; HGSOC PDX models harboring CCNE1 amplifications accompanied by TP53 mutations, data not shown): Significant antitumor activity
synergy with low-dose gemcitabine (cancer xenograft models; HT29 (FIG. 5), OVCAR3 and SJSA-1 CDX models, PDX model of TNBC): Synergy was also observed
antitumor activity in combination with standard-dose gemcitabine (cancer xenograft models; HT29, SJSA-1, SW620, Calu6, KPC-1 and patient-derived bladder carcinoma xenograft models, data not shown): Significant, dose-dependent antitumor activity
synergy with irinotecan (cancer xenograft models; HT29 model, data not shown): Synergy
single agent efficacy (cancer xenograft models; OVCAR3, Eμ-Myc, MOLM-13, TH-MYC, MDA-MB-231, Renca and LL/2 models, data not shown): demonstrated single agent efficacy
sensitivity to high dose SRA737 monotherapy (cancer xenograft models; fourth HGSOC PDX model with partial resistance to PARPi): sensitive
antitumor activity in combination with a PD1/PD-L1 inhibitor (cancer xenograft models; syngeneic mouse models mTmG, MC38 and Pan02, data not shown): Significant antitumor activity
rank order of stability from most stable to least stable [4]: rat≈mouse>monkey˜human>>dog>>minipig
Percentage Bound (plasma protein [5]): 68.8%
Percentage Free (plasma protein [5]): 31.2%
Percentage Bound (plasma protein [6]; 1 μM): 88.8%
Percentage Free (plasma protein [6]; 1 μM): 11.2%
Percentage Bound (plasma protein [6]; 10 μM): 85.8%
Percentage Free (plasma protein [6]; 10 μM): 14.2%

Source: patent publication US20220226338A1, “Methods of Treating Cancer Using CHK1 Inhibitors” (Sierra Oncology, Inc., priority 2019, published 2022)
